Values after ≈ are worked out from the molar mass of the structure shown.
What was measured:
[1] = system: Pseudomonas aeruginosa; assay: Antibacterial activity against Pseudomonas aeruginosa ATCC 27853 after 18 hrs by CLSI broth microdilution method; assay type: functional; conditions: ATCC 27853, 18 h
[2] = system: Enterobacter cloacae; assay: Antibacterial activity against Enterobacter cloacae ATCC 43560 after 18 hrs by CLSI broth microdilution method; assay type: functional; conditions: ATCC 43560, 18 h
[3] = system: Staphylococcus epidermidis; assay: Antibacterial activity against methicillin-sensitive Staphylococcus epidermidis 12-6 after 18 hrs by CLSI broth microdilution method; assay type: functional; conditions: 12-6, 18 h
[4] = system: Staphylococcus aureus; assay: Antibacterial activity against methicillin-sensitive Staphylococcus aureus 15 after 18 hrs by CLSI broth microdilution method; assay type: functional; conditions: Staphylococcus aureus, 15, 18 h
[5] = system: Proteus vulgaris; assay: Antibacterial activity against Proteus vulgaris ATCC 29905 after 18 hrs by CLSI broth microdilution method; assay type: functional; conditions: ATCC 29905, 18 h
[6] = system: Stenotrophomonas maltophilia; assay: Antibacterial activity against Stenotrophomonas maltophilia ATCC 13636 after 18 hrs by CLSI broth microdilution method; assay type: functional; conditions: ATCC 13636, 18 h
[7] = system: Klebsiella pneumoniae; assay: Antibacterial activity against extended-spectrum beta-lactamase deficient Klebsiella pneumoniae 7 after 18 hrs by CLSI broth microdilution method; assay type: functional; conditions: Klebsiella pneumoniae, 7, 18 h
[8] = system: Enterococcus faecalis; assay: Antibacterial activity against vancomycin-sensitive Enterococcus faecalis 12-5 after 18 hrs by CLSI broth microdilution method; assay type: functional; conditions: 12-5, 18 h
[9] = system: Enterococcus faecalis; assay: Antibacterial activity against vancomycin-sensitive Enterococcus faecalis ATCC 29212 after 18 hrs by CLSI broth microdilution method; assay type: functional; conditions: ATCC 29212, 18 h
[10] = system: Klebsiella pneumoniae; assay: Antibacterial activity against extended-spectrum beta-lactamase deficient Klebsiella pneumoniae 12-4 after 18 hrs by CLSI broth microdilution method; assay type: functional; conditions: 12-4, 18 h
[11] = system: Klebsiella aerogenes; assay: Antibacterial activity against Enterobacter aerogenes ATCC 13048 after 18 hrs by CLSI broth microdilution method; assay type: functional; conditions: ATCC 13048, 18 h
[12] = system: Staphylococcus aureus; assay: Antibacterial activity against methicillin-resistant Staphylococcus aureus 12-33 after 18 hrs by CLSI broth microdilution method; assay type: functional; conditions: 12-33, 18 h
[13] = Cytotoxicity against HEK293T cells assessed as reduction in cell viability after 48 hrs by MTS assay; assay type: cell-based, HEK-293T; conditions: human
[14] = system: Klebsiella pneumoniae; assay: Antibacterial activity against new delhi metallo-beta-lactamase-1 harboring Klebsiella pneumoniae ATCC BAA-2146 after 18 hrs by CLSI broth microdilution method; assay type: functional; conditions: ATCC BAA-2146, 18 h
[15] = system: Klebsiella pneumoniae; assay: Antibacterial activity against extended-spectrum beta-lactamase harboring Klebsiella pneumoniae 12-8 after 18 hrs by CLSI broth microdilution method; assay type: functional; conditions: 12-8, 18 h
[16] = system: Escherichia coli; assay: Antibacterial activity against extended-spectrum beta-lactamase deficient Escherichia coli 1515 after 18 hrs by CLSI broth microdilution method; assay type: functional; conditions: Escherichia coli, 1515, 18 h
[17] = system: Acinetobacter calcoaceticus; assay: Antibacterial activity against Acinetobacter calcoaceticus ATCC 19606 after 18 hrs by CLSI broth microdilution method; assay type: functional; conditions: ATCC 19606, 18 h
[18] = system: Enterococcus faecalis; assay: Antibacterial activity against vancomycin-resistant Enterococcus faecalis ATCC 51299 after 18 hrs by CLSI broth microdilution method; assay type: functional; conditions: ATCC 51299, 18 h
[19] = system: Enterococcus faecium; assay: Antibacterial activity against vancomycin-resistant Enterococcus faecium 12-1 after 18 hrs by CLSI broth microdilution method; assay type: functional; conditions: 12-1, 18 h
[20] = system: Serratia marcescens; assay: Antibacterial activity against Serratia marcescens ATCC 21074 after 18 hrs by CLSI broth microdilution method; assay type: functional; conditions: ATCC 21074, 18 h
[21] = system: Enterococcus faecium; assay: Antibacterial activity against vancomycin-resistant Enterococcus faecium ATCC 700221 after 18 hrs by CLSI broth microdilution method; assay type: functional; conditions: ATCC 700221, 18 h
[22] = system: Pseudomonas aeruginosa; assay: Antibacterial activity against Pseudomonas aeruginosa PAO1 after 18 hrs by CLSI broth microdilution method; assay type: functional; conditions: PAO1, 18 h
[23] = system: Staphylococcus epidermidis; assay: Antibacterial activity against methicillin-sensitive Staphylococcus epidermidis ATCC 12228 after 18 hrs by CLSI broth microdilution method; assay type: functional; conditions: ATCC 12228, 18 h
[24] = system: Escherichia coli; assay: Antibacterial activity against extended-spectrum beta-lactamase harboring Escherichia coli 12-15 after 18 hrs by CLSI broth microdilution method; assay type: functional; conditions: 12-15, 18 h
[25] = system: Escherichia coli; assay: Antibacterial activity against extended-spectrum beta-lactamase deficient Escherichia coli 12-14 after 18 hrs by CLSI broth microdilution method; assay type: functional; conditions: 12-14, 18 h
[26] = system: Staphylococcus epidermidis; assay: Antibacterial activity against methicillin-resistant Staphylococcus epidermidis 12-8 after 18 hrs by CLSI broth microdilution method; assay type: functional; conditions: 12-8, 18 h
[27] = system: Staphylococcus aureus; assay: Antibacterial activity against methicillin-sensitive Staphylococcus aureus 12-28 after 18 hrs by CLSI broth microdilution method; assay type: functional; conditions: 12-28, 18 h
[28] = system: Enterococcus faecalis; assay: Antibacterial activity against vancomycin-resistant Enterococcus faecalis 09-9 after 18 hrs by CLSI broth microdilution method; assay type: functional; conditions: 09-9, 18 h
[29] = system: Enterococcus faecium; assay: Antibacterial activity against vancomycin-sensitive Enterococcus faecium 12-3 after 18 hrs by CLSI broth microdilution method; assay type: functional; conditions: 12-3, 18 h
[30] = system: Citrobacter freundii; assay: Antibacterial activity against Citrobacter freundii ATCC 43864 after 18 hrs by CLSI broth microdilution method; assay type: functional; conditions: ATCC 43864, 18 h
[31] = system: Staphylococcus aureus; assay: Antibacterial activity against methicillin-sensitive Staphylococcus aureus ATCC 29213 after 18 hrs by CLSI broth microdilution method; assay type: functional; conditions: ATCC 29213, 18 h
[32] = system: Escherichia coli; assay: Antibacterial activity against extended-spectrum beta-lactamase deficient Escherichia coli ATCC 25922 after 18 hrs by CLSI broth microdilution method; assay type: functional; conditions: ATCC 25922, 18 h
[33] = system: Pseudomonas aeruginosa; assay: Antibacterial activity against Pseudomonas aeruginosa 12-16 after 18 hrs by CLSI broth microdilution method; assay type: functional; conditions: 12-16, 18 h
[34] = system: Providencia rettgeri; assay: Antibacterial activity against Providencia rettgeri ATCC 31052 after 18 hrs by CLSI broth microdilution method; assay type: functional; conditions: ATCC 31052, 18 h
[35] = system: Klebsiella pneumoniae; assay: Antibacterial activity against extended-spectrum beta-lactamase harboring Klebsiella pneumoniae ATCC 700603 after 18 hrs by CLSI broth microdilution method; assay type: functional; conditions: Klebsiella pneumoniae, 700603, 18 h
[36] = system: Staphylococcus aureus; assay: Antibacterial activity against methicillin-resistant Staphylococcus aureus ATCC 33591 after 18 hrs by CLSI broth microdilution method; assay type: functional; conditions: ATCC 33591, 18 h
[37] = system: Proteus mirabilis; assay: Antibacterial activity against Proteus mirabilis 12-6 after 18 hrs by CLSI broth microdilution method; assay type: functional; conditions: 12-6, 18 h

Structure (SMILES)	MIC [1] [µg/mL]	MIC [2] [µg/mL]	MIC [3] [µg/mL]	MIC [4] [µg/mL]	MIC [5] [µg/mL]	MIC [6] [µg/mL]	MIC [7] [µg/mL]	MIC [8] [µg/mL]	MIC [9] [µg/mL]	MIC [10] [µg/mL]	MIC [11] [µg/mL]	MIC [12] [µg/mL]	CC50 at 48 h [13] [µg/mL]	MIC [14] [µg/mL]	MIC [15] [µg/mL]	MIC [16] [µg/mL]	MIC [17] [µg/mL]	MIC [18] [µg/mL]	MIC [19] [µg/mL]	MIC [20] [µg/mL]	also measured
N=C(c1ccc2cc(-c3ccc(-c4cc5ccc(C(=N)N6CC=CCC6)cc5[nH]4)cc3)[nH]c2c1)N1CC=CCC1	> 128	8 (≈ 15.2 µM)	4 (≈ 7.62 µM)	2 (≈ 3.81 µM)	16 (≈ 30.5 µM)	16 (≈ 30.5 µM)	16 (≈ 30.5 µM)	8 (≈ 15.2 µM)	4 (≈ 7.62 µM)	16 (≈ 30.5 µM)	8 (≈ 15.2 µM)	2 (≈ 3.81 µM)	13.3 (≈ 25.4 µM)	8 (≈ 15.2 µM)	16 (≈ 30.5 µM)	8 (≈ 15.2 µM)	16 (≈ 30.5 µM)	8 (≈ 15.2 µM)	4 (≈ 7.62 µM)	64 (≈ 122 µM)	MIC [21]: 4 µg/mL (≈ 7.62 µM); MIC [22]: > 128 µg/mL; MIC [23]: 1 µg/mL (≈ 1.91 µM); MIC [24]: 8 µg/mL (≈ 15.2 µM); MIC [25]: 8 µg/mL (≈ 15.2 µM); MIC [26]: 2 µg/mL (≈ 3.81 µM); MIC [27]: 2 µg/mL (≈ 3.81 µM); MIC [28]: 4 µg/mL (≈ 7.62 µM); MIC [29]: 4 µg/mL (≈ 7.62 µM); MIC [30]: 8 µg/mL (≈ 15.2 µM); MIC [31]: 2 µg/mL (≈ 3.81 µM); MIC [32]: 8 µg/mL (≈ 15.2 µM); MIC [33]: > 128 µg/mL; MIC [34]: 8 µg/mL (≈ 15.2 µM); MIC [35]: 32 µg/mL (≈ 61 µM); MIC [36]: 1 µg/mL (≈ 1.91 µM); MIC [37]: 32 µg/mL (≈ 61 µM)
CN1CCN(C(=N)c2ccc3cc(-c4ccc(-c5cc6ccc(C(=N)N7CCN(C)CC7)cc6[nH]5)cc4)[nH]c3c2)CC1	64 (≈ 115 µM)	8 (≈ 14.3 µM)	2 (≈ 3.58 µM)	1 (≈ 1.79 µM)	16 (≈ 28.6 µM)	128 (≈ 229 µM)	16 (≈ 28.6 µM)	64 (≈ 115 µM)	8 (≈ 14.3 µM)	64 (≈ 115 µM)	16 (≈ 28.6 µM)	1 (≈ 1.79 µM)	18.9 (≈ 33.9 µM)	16 (≈ 28.6 µM)	16 (≈ 28.6 µM)	8 (≈ 14.3 µM)	128 (≈ 229 µM)	64 (≈ 115 µM)	8 (≈ 14.3 µM)	> 128	MIC [21]: 8 µg/mL (≈ 14.3 µM); MIC [22]: 128 µg/mL (≈ 229 µM); MIC [23]: 1 µg/mL (≈ 1.79 µM); MIC [24]: 8 µg/mL (≈ 14.3 µM); MIC [25]: 8 µg/mL (≈ 14.3 µM); MIC [26]: 1 µg/mL (≈ 1.79 µM); MIC [27]: 1 µg/mL (≈ 1.79 µM); MIC [28]: 8 µg/mL (≈ 14.3 µM); MIC [29]: 8 µg/mL (≈ 14.3 µM); MIC [30]: 8 µg/mL (≈ 14.3 µM); MIC [31]: 1 µg/mL (≈ 1.79 µM); MIC [32]: 8 µg/mL (≈ 14.3 µM); MIC [33]: > 128 µg/mL; MIC [34]: 8 µg/mL (≈ 14.3 µM); MIC [35]: 64 µg/mL (≈ 115 µM); MIC [36]: 1 µg/mL (≈ 1.79 µM); MIC [37]: > 128 µg/mL

Source: ChEMBL document CHEMBL4229379, “Synthesis and structure-activity relationship of novel bisindole amidines active against MDR Gram-positive and Gram-negative bacteria” (Eur J Med Chem, 2018)
